Results from patent US5565489A, “Epoxycyclohexenedione derivatives” (Kyowa Hakko Kogyo Co., Ltd., priority 1993, dated 1996).
Values after ≈ are worked out from the molar mass of the structure shown.

Columns and labels:
FTase [1] = molecular target: T1, FTase (Rattus norvegicus, UniProt Q02293+Q04631); assay: FTase inhibitory activity (farnesylation of v-Ki-ras p21, partially purified rat brain FTase); format: biochemical; settings: for IC50: rat brain FTase, v-Ki-ras p21 substrate
T1 construct: The FTase used for the assay was obtained from rat brain as follows; from tissue; host or cells: male rat brain; ammonium sulfate fraction, Mono Q 10/10, partially purified
Method: (§1) FTase Inhibitory Activity
The FTase used for the assay was obtained from rat brain as follows. An extract of minced brain of a male rat was salted out using ammonium sulfate. The fraction obtained at 50% saturation was dissolved in a buffer solution (20 mM Tris-HCl, pH 7.5, 1 mM dithiothreitol (DTT), 20 μM ZnCl2) and further fractionated by column chromatography using a Mono Q 10/10 column. The column was eluted by gradient elution with 0.3 to 0.4 M NaCl. The active fraction eluted at near 0.35 M NaCl, was used as a partially purified preparation. Measurement of the activity was carried out by using the thus prepared enzyme and v-Ki-ras p21 as a substrate. The v-Ki-ras p21, used as a substrate, was obtained by high expression using Escherichia coli, followed by purification according to the method of Tamaoki, et al. [Biochem. Biophys. […] The enzyme inhibitory activity was measured as inhibition of the test compound on farnesylation of the C-terminal of v-ki-ras p21 in the above-mentioned reaction system.

FTase [2] = settings: not numerically described; cited from earlier work
FTase [3] = molecular target: T2, FTase (Bos taurus, UniProt P29702+P49355); assay: FTase inhibitory activity (farnesylation of C-terminal peptide of lamin B, crude bovine brain enzyme, FTase [^3 H]SPA enzyme assay kit); format: biochemical; settings: for inhibitory activity against FTase (in words): Table 2 summary; for IC50: bovine brain enzyme, lamin B C-terminal peptide
T2 construct: An extract of minced bovine brain was subjected to column chromatography on DEAE-Sephacel (Pharmacia); from tissue; host or cells: bovine brain; DEAE-Sephacel active fraction, crude enzyme solution
Method: as §1
An extract of minced bovine brain was subjected to column chromatography on DEAE-Sephacel (Pharmacia). The active fraction was concentrated by ultrafiltration and dialyzed against a mixture of 20 mM Tris-HCl (pH 8.0), 50 mM NaCl, […], 1 mM DTT, 0.2 mM phenylmethylsulfonyl fluoride (PMSF). The resulting dialysate was used as a crude enzyme solution. Measurement of activity was carried out by using the enzyme obtained by the above-mentioned method and an FTase [^3 H]SPA enzyme assay kit (Amersham). Enzyme inhibitory activity was measured as inhibition of farnesylation of the C-terminal peptide of lamin B by the test compound in the above-mentioned reaction system. The enzyme inhibitory activity of a group treated with a test compound of a known concentration was compared with that of a non-treated group to calculate the concentration of the test compound for 50% inhibition of farnesylation (IC50).

[4] = test system: NIH 3T3 fibroblasts transformed by oncogene EJ-ras; assay: Inhibitory activity on cell growth of NIH 3T3/EJ-ras; format: cell-based
Method: Inhibitory Activity on Cell Growth
The antitumor activity was measured by using NIH 3T3 fibroblasts transformed by oncogene EJ-ras (hereinafter referred to as "NIH 3T3/EJ-ras").
NIH 3T3/EJ-ras cells were suspended in a DME medium (Nissui KK) containing 10% fetal bovine serum, penicillin (100 U/ml) and streptomycin (100 μg/ml) (hereinafter referred to as medium A) in a cell concentration of 1.0×10^4 cells/ml. Each well of a […] microtiter plate was inoculated with 0.1 ml of the cell suspension, and the system was monolayer cultured by incubation in a carbondioxide incubator at 37° C. for 24 hours. To each well was added 0.1 ml of a test compound appropriately diluted with medium A, followed by incubation in the carbondioxide incubator at 37° C. for 72 hours. The cells were recovered by trypsinization, and the number of the cells was counted with a cell counter. A concentration of the test compound for 50% inhibition of cell growth (IC50) was calculated.

[5] = test system: Staphylococcus aureus ATCC 6538P; assay: Antimicrobial activity, agar dilution method (SA); format: cell-based; settings: ATCC6538P, pH 7
Method: (§2) Antimicrobial activity was measured by an agar dilution method using a culture medium (pH 7) prepared by dissolving 3 g of Bacto-tryptone (Difco), 3 g of meat extract, 1 g of yeast extract, 1 g of glucose, and 16 g of agar in 1 l of water. The antimicrobial activity was expressed in terms of minimum growth inhibitory concentration (MIC).

[6] = test system: Enterococcus faecium ATCC 10541; assay: Antimicrobial activity, agar dilution method (EF); format: cell-based; settings: ATCC10541, pH 7
Method: as §2

[7] = test system: Bacillus subtilis No. 10707; assay: Antimicrobial activity, agar dilution method (BS); format: cell-based; settings: pH 7
Method: as §2

[8] = test system: Staphylococcus aureus, Enterococcus faecium, Bacillus subtilis; assay: Antimicrobial activity, agar dilution method (summary of Table 4); format: cell-based; settings: Table 4 summary
Method: as §2

FTase of yeast origin = settings: ras protein of yeast origin as substrate; read-out: IC50 against FTase of yeast origin; cited from earlier work

CCCC[C@@H](C)/C=C(C)/C=C(\C)C(=O)NC1=CC(=O)[C@@H]2O[C@@H]2C1=O [IVa, reference compound]
IC50 (FTase [1]; Experiment 2): 60 µM
FTase inhibitory activity (in words) (FTase [2]): the activity of these compounds can be detected

CCCCC(C)/C=C(\C)C(=O)NC1=CC(=O)[C@@H]2O[C@@H]2C1=O (stereo partly drawn) [IVb]
FTase inhibitory activity (in words) (FTase [2]): the activity of these compounds can be detected

CC(C)=CCC/C(C)=C/CC/C(C)=C/C(=O)NC1=CC(=O)[C@@H]2O[C@@H]2C1=O (relative stereo) [Compound I-1, 4,5-Epoxy-1-farnesoylamino-3,6-dioxocyclohexene]
IC50 (FTase [1]; Experiment 1): 18 µM
inhibitory activity against FTase (in words) (FTase [1]; Table 1 summary): obvious inhibitory activity against FTase
inhibitory activity compared with manumycin and compound IVa (in words) (FTase [1]; Table 1 summary, as compared with manumycin and compound IVa): significantly strong as compared with those of manumycin and compound IVa
inhibitory activity against FTase (in words) (FTase [3]): obvious inhibitory activity against FTase
IC50 (FTase [3]): 21 µM
IC50 ([4]; Mus musculus, NIH3T3, NIH 3T3/EJ-ras, 72 hours): 4.3 µM
inhibitory activity on growth (in words) ([4]; Table 3 summary): obvious inhibitory activity on growth of the NIH 3T3 fibroblasts transformed by oncogene EJ-ras
MIC [5]: 0.91 µg/mL (≈ 2.55 µM)
MIC [6]: 0.46 µg/mL (≈ 1.29 µM)
MIC [7]: 0.46 µg/mL (≈ 1.29 µM)
antimicrobial activity (in words) [8]: remarkable antimicrobial activity

CCCCC/C=C\C/C=C\CCCCCCCC(=O)NC1=CC(=O)C2OC2C1=O (stereo not drawn) [Compound I-4, 4,5-Epoxy-1-linoleoylamino-3,6-dioxocyclohexene]
inhibitory activity against FTase (in words) (FTase [3]): obvious inhibitory activity against FTase
IC50 (FTase [3]): 19 µM
MIC [5]: > 100 µg/mL
MIC [6]: 0.33 µg/mL (≈ 0.822 µM)
MIC [7]: 0.65 µg/mL (≈ 1.62 µM)
antimicrobial activity (in words) [8]: remarkable antimicrobial activity

CCCCCCCCCCCC(=O)NC1=CC(=O)C2OC2C1=O (stereo not drawn) [Compound I-2, 4,5-Epoxy-l-lauroylamino-3,6-dioxocyclohexene]
inhibitory activity against FTase (in words) (FTase [3]): obvious inhibitory activity against FTase
IC50 (FTase [3]): 21 µM
MIC [5]: > 100 µg/mL
MIC [6]: 0.04 µg/mL (≈ 0.124 µM)
MIC [7]: 0.08 µg/mL (≈ 0.249 µM)
antimicrobial activity (in words) [8]: remarkable antimicrobial activity

CCCC[C@@H](C)/C=C(C)/C=C(\C)C(=O)NC1=C[C@](O)(/C=C/C=C/C=C/C(=O)NC2=C(O)CCC2=O)[C@@H]2O[C@@H]2C1=O [Manumycin, reference compound]
IC50 (FTase [1]; Experiment 1): 76 µM
IC50 (FTase [1]; Experiment 2): 35 µM
IC50 (FTase of yeast origin): 5 µM

CC(C)=CCC/C(C)=C/CC/C(C)=C/CC/C(C)=C/C(=O)NC1=CC(=O)C2OC2C1=O (stereo not drawn) [Compound I-5, 4,5-Epoxy-1-geranylgeranoylamino-3,6-dioxocyclohexene]
inhibitory activity against FTase (in words) (FTase [3]): obvious inhibitory activity against FTase
IC50 (FTase [3]): 23 µM
MIC [5]: > 100 µg/mL
MIC [6]: 0.65 µg/mL (≈ 1.53 µM)
MIC [7]: 0.65 µg/mL (≈ 1.53 µM)
antimicrobial activity (in words) [8]: remarkable antimicrobial activity

CCCCC(C)/C=C(C)/C=C/C(=O)NC1=CC(=O)[C@@H]2O[C@@H]2C1=O (stereo partly drawn) [IVc]
FTase inhibitory activity (in words) (FTase [2]): the activity of these compounds can be detected
